{"source": "patent US10385108B2", "about": "“Peptide analogs of alpha-melanocyte stimulating hormone” (Genzyme Corporation, priority 2008, dated 2019)", "key": {"MC3R": {"target": "MC3R (Homo sapiens, UniProt P41968)", "sequence (P41968 whole entry)": "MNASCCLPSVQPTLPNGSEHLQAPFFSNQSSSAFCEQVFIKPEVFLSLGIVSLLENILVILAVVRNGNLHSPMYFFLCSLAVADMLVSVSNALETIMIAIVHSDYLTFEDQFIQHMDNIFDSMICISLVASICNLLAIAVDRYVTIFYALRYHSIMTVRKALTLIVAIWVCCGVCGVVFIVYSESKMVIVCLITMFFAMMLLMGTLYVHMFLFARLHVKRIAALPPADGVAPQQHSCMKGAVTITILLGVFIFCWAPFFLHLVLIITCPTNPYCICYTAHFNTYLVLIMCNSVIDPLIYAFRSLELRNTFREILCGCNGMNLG", "assay": "Competitive binding with 125I-NDP-MSH, HEK293 membrane preparations, MC3R", "quoted_text": "Binding analysis was done by Cerep laboratories (Paris, France) with coded samples.\nThe mixtures were filtered through 96-well GFC filters (Millipore, Billerica, Mass.), washed 3 times with binding buffer without BSA, dried and counted.\nA competitive binding assay using a MCR panel including MCR 1, 3, 4, and 5 was performed."}, "C57BL/6 mice": {"system": "C57BL/6 mice", "assay": "MOG35-55 induced EAE model", "assay_type": "in vivo"}, "B10.RIII mice": {"system": "B10.RIII mice", "experimental": "Female B10.RIII were injected subcutaneously at two sites (between shoulder blades and in pelvic region) with a total of 200 μg interphotoreceptor binding protein peptide (IRBP) 161-180 (New England Peptide; Fitchburg, Mass.), respectively in 2 mg/ml complete Freund's adjuvant (CFA; Sigma, St. Louis, Mo.) with mycobacterium tuberculosis H37Ra (Difco, Detroit, Mich.).\nThe eyes of mice are dilated using one or two drops of Mydriacyl 1% (Alcon; Humacao, Puerto Rico) and rested in a darkened room for approximately 5 min. Mice are manually restrained and the retinas of both eyes are visualized using an indirect ophthalmoscope with a 78 diopter lens. The eyes are scored for inflammation using a progressive scoring system between 0-5. Score 0: Normal retina. Score 1: Vascular inflammation proximal to the optic nerve. Score 2: <5 inflammatory lesions confined to one quadrant of the eye. Score 3: >5 inflammatory lesions in more than one quadrant of the eye. Score 4: Inflammatory lesions are contiguous. Score 5: Retinal detachment. Whole eyes from mice were harvested and placed in PBS. The eyes were embedded in OCT media for frozen fixation. 5-μm sections were cut through the papillary-optic nerve plane and stained with hematoxylin and eosin.\nUveitis was induced in B10.RIII mice with an injection of IRBP 161-180 and CFA.\nCurrent forms of therapy for uveitis include corticosteroids and immunosuppressive agents. […] Uveitis was induced in B10.RIII mice with IRBP161-180 and CFA injections. […] Mice were treated daily for 21 days.\nEAU was induced in female B10.RIII mice with IRBP 161-180.\nUveitis was induced in B10.RIII mice with IRBP161-180 and CFA injections. […] Individual weights of the mice were recorded at 4 timepoints throughout the course of disease.\nB10.RIII mice were injected with IRBP161-180 and CFA to induce uveitis. […] Treatment was initiated at peak time of disease when mice reached eye scores of 4 which included inflammatory lesions throughout the posterior segment of the eye and possible hemorrhaging."}, "[1]": {"assay": "Serum levels after a single dose in mice", "assay_type": "in vivo"}, "[2]": {"details": "Example 10, 100 μg/mouse i.p. daily from day 10"}}, "note": "Read-outs that look alike come from different tables or passages of the source."}
{"smiles": "CSCC[C@@H](NC(=O)[C@@H](CCC(=O)O)NC(=O)[C@@H](Cc1c[nH]cn1)NC(=O)[C@@H](Cc1ccccc1)NC(=O)[C@@H](CCCNC(=N)N)NC(=O)[C@@H](Cc1c[nH]c2ccccc12)NC(=O)CNC(=O)[C@@H](CCCCN)NC(=O)[C@H]1CCCN1C(=O)[C@H](NC(C)=O)C(C)C)C(=O)N[C@H](CO)C(=O)N[C@H](Cc1ccc(O)cc1)C(=O)N[C@H](CO)C(N)=O", "note": "[RI-MSH, vpkGwrfhemsys]", "values": [{"measurement": "Ki", "setting": "MC3R", "result": "> 30", "unit": "µM"}, {"measurement": "binding to MCR-3 (in words)", "setting": "MC3R; MCR panel 1, 3, 4, 5", "result": "bind only to MCR-1"}, {"measurement": "spinal cord histopathology (in words)", "setting": "C57BL/6 mice; 100 μg/mouse i.p. daily from day 10, day 24", "result": "lack focal area of inflammation"}, {"measurement": "TNF-α mRNA in spleen vs PBS (in words)", "setting": "C57BL/6 mice; Day 1 and Day 4 of treatment", "result": "no significant change"}, {"measurement": "IL-10 mRNA in spleen vs PBS (in words)", "setting": "C57BL/6 mice; Day 7 of treatment", "result": "reduced"}, {"measurement": "maximum percent incidence of disease", "setting": "C57BL/6 mice; [2]", "result": 20, "unit": "%"}, {"measurement": "mean clinical disease score vs PBS (in words)", "setting": "C57BL/6 mice; [2]", "result": "significant reduction in the mean clinical disease score"}, {"measurement": "mean clinical scores (in words)", "setting": "C57BL/6 mice; Example 11, 30 μg/mouse i.p. daily from day 10", "result": "did not have a significant effect"}, {"measurement": "maximum percent incidence of disease", "setting": "C57BL/6 mice; Example 11, dexamethasone 2 mg/kg", "result": 35, "unit": "%"}, {"measurement": "mean clinical disease score vs PBS (in words)", "setting": "C57BL/6 mice; Example 11, peptides 100 μg/mouse, dexamethasone 2 mg/kg, i.p. daily from day 10", "result": "reduction in the mean clinical disease score"}, {"measurement": "TNF-α mRNA in spleen vs PBS (in words)", "setting": "C57BL/6 mice; after 7 days of daily treatment", "result": "significantly decreased"}, {"measurement": "IL-10 mRNA in spleen vs PBS (in words)", "setting": "C57BL/6 mice; earlier timepoints (Day 1 and 4)", "result": "no difference"}, {"measurement": "uveitis course (in words)", "setting": "B10.RIII mice; 3 μg/mouse i.p. daily from eye scores of 4", "result": "did not reduce or inhibit disease"}, {"measurement": "uveitis course (in words)", "setting": "B10.RIII mice; 10 μg/mouse i.p. daily from eye scores of 4", "result": "rapidly ameliorated uveitis"}, {"measurement": "mean clinical eye scores vs scrambled peptide (in words)", "setting": "B10.RIII mice; 100 μg/mouse i.p. daily for 13 days from eye scores 2-3, days 15, 21 and 23", "result": "significant reduction"}, {"measurement": "uveitis course (in words)", "setting": "B10.RIII mice; 100 μg/mouse i.p. daily from eye scores of 4", "result": "rapidly ameliorated uveitis"}, {"measurement": "mice with individual maximum eye scores ≤1", "setting": "B10.RIII mice; 100 μg/mouse i.p. daily, day 23 after disease induction", "result": 75, "unit": "%"}, {"measurement": "efficacy in uveitis, treatment at onset of disease (in words)", "setting": "B10.RIII mice; 100 μg/mouse i.p., from eye score 1, data not shown", "result": "had efficacy in uveitis"}, {"measurement": "mean clinical eye scores vs PBS (in words)", "setting": "B10.RIII mice; 100 μg/mouse i.v. daily from eye scores of 2", "result": "significant reduction of mean clinical eye scores"}, {"measurement": "eye score in retina images (median of group)", "setting": "B10.RIII mice; 100 μg/mouse i.v. daily from late stage, day 13 after start of treatment", "result": 1}, {"measurement": "histological examination of the eyes (in words)", "setting": "B10.RIII mice; 100 μg/mouse i.v. daily, 10 days after start of treatment", "result": "reduced pathology in the eye"}, {"measurement": "mice with eye scores of 3 or greater", "setting": "B10.RIII mice; 100 μg/mouse i.v. daily, day 13 after start of treatment", "result": "2 of the 11"}, {"measurement": "mice with a maximum eye score of 3 or greater", "setting": "B10.RIII mice; 100 μg/mouse i.v. daily, day 16, four days after start of treatment", "result": "0 of the 8"}, {"measurement": "serum half-life compared (in words)", "setting": "[1]; mouse, in vivo, iv", "result": "longer serum half-life than native α-MSH"}, {"measurement": "serum levels after a single dose (in words)", "setting": "[1]; single dose of 100 μg, mice, n=5", "result": "measurable serum levels of RI-α-MSH after 24 hrs"}]}
